Data on 37 compounds can be found in patent US9493444B2 (Merck Patent GmbH, priority 2012, dated 2016).

Structures are written as SMILES. Bounds are passed on as bounds.

In the assay the test system is Wnt pathway (TCF-dependent transcription in HEK293 luciferase reporter cell line with ER-DSH construct). In words: Cellular assay for Wnt pathway activity (luciferase reporter). The format is cell-based. Conditions: Homo sapiens; Wnt pathway inhibition, HEK293 luciferase reporter cells (ER-DSH, TCF promoter), 24 hours incubation, estrogen-induced. In a few lines:
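Luminescent luciferase read-out after 24 h compound exposure at 1 nM to 30 μM, with TCF-driven transcription switched on by estrogen addition. IC50 values come from curve fits of data normalized against the vehicle-only control.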
(Reporter assays use an easily measured gene product as a stand-in for the process of interest.)
In general, IC50 refers to the concentration needed to halve the response being measured. A higher IC50 goes with weaker potency in that assay. Regarding `CC(=O)N(C)CCN(C)c1cncc(Oc2ccc(Cl)c(Cl)c2)n1` [Compound 89, N-(2-{[6-(3,4-Dichloro-phenoxy)-pyrazin-2-yl]-methyl-amino}-ethyl)-N-methyl-acetamide], the IC50 fell in the range of 0.2 to 1 µM. Consider `CC(=O)N(C)CCN(C)c1cncc(Oc2ccc(C(=O)c3ccccc3)cc2)n1` [Compound 147], for which the IC50 fell in the range of 0.2 to 1 µM. Compound `CCN(CCN(C)c1cncc(Oc2ccc(OC)cc2)n1)C(C)=O` [Compound 77, N-Ethyl-N-(2-{[6-(4-methoxy-phenoxy)-pyrazin-2-yl]-methyl-amino}-ethyl)-acetamide] gave a half-inhibitory concentration (IC50) of less than 0.2 µM.

In turn, `CC(=O)N(C)CCN(C)c1cncc(Oc2ccc(-c3cncc(C)c3)cc2)n1` [Compound 212, N-Methyl-N-[2-(methyl-{6-[4-(5-methyl-pyridin-3-yl)-phenoxy]-pyrazin-2-yl}-amino)-ethyl]-acetamide] gave an IC50 of 0.2 to 1 µM. The compound `COc1ccc(Oc2cncc(N(C)CCCN(C)C(C)=O)n2)cc1` [Compound 80, N-(3-{[6-(4-Methoxy-phenoxy)-pyrazin-2-yl]-methyl-amino}-propyl)-N-methyl-acetamide] gave an IC50 of 1 to 10 µM. In turn, `CC(=O)N(C)CCCN(C)c1cncc(Oc2ccc(F)cc2)n1` [Compound 83, N-(3-{[6-(4-Fluoro-phenoxy)-pyrazin-2-yl]-methyl-amino}-propyl)-N-methyl-acetamide] displayed an IC50 of 1 to 10 µM.

Compound `CNCCN(C)c1cncc(Oc2ccc(-c3cc(C(F)(F)F)ccn3)cc2)n1` [Compound 120, N,N′-Dimethyl-N-{6-[4-(4-trifluoro-methyl-pyridin-2-yl)-phenoxy]-pyrazin-2-yl}-ethane-1,2-diamine] returned a 50% inhibitory concentration (IC50) of 1 to 10 µM. On to `CC(=O)N(C)CCN(C)c1cncc(Oc2ccc(-c3cnc(N)cn3)cc2F)n1` [Compound 238, N-[2-({6-[4-(5-Amino-pyrazin-2-yl)-2-fluoro-phenoxy]-pyrazin-2-yl}-methyl-amino)-ethyl]-N-methyl-acetamide], for which the concentration for half-maximal inhibition (IC50) was less than 0.2 µM. With `CC(=O)N(C)CCN(C)c1cncc(Oc2ccccc2F)n1` [Compound 51, N-(2-{[6-(2-Fluoro-phenoxy)-pyrazin-2-yl]-methyl-amino}-ethyl)-N-methyl-acetamide], the IC50 lay in the range of 0.2 to 1 µM. The compound `CCNC(=O)N(C)CCN(C)c1cncc(Oc2ccc(OC)cc2)n1` [Compound 69, 3-Ethyl-1-(2-{[6-(4-methoxy-phenoxy)-pyrazin-2-yl]-methyl-amino}-ethyl)-1-methyl-urea] had an IC50 of 1 to 10 µM. Next, `CC(=O)N(C)CCNc1cncc(Oc2ccc(-c3ccc(S(N)(=O)=O)cn3)cc2)n1` [Compound 294, N-Methyl-N-(2-{6-[4-(5-sulfamoyl-pyridin-2-yl)-phenoxy]-pyrazin-2-ylamino}-ethyl)-acetamide]: 1 to 10 µM. Next, `CC(=O)N(C)CCNc1cncc(Cc2ccccc2)n1` [Compound 319, N-[2-(6-Benzyl-pyrazin-2-ylamino)-ethyl]-N-methyl-acetamide]: 0.2 to 1 µM. Regarding `CC(=O)N(C)CCN(C)c1cncc(Oc2c(F)cc(Br)cc2F)n1` [Compound 113, N-(2-{[6-(4-Bromo-2,6-difluoro-phenoxy)-pyrazin-2-yl]-methyl-amino}-ethyl)-N-methyl-acetamide], the IC50 is less than 0.2 µM. Next, `CC(=O)N(C)CCN(C)c1cncc(Oc2ccc(CC(N)=O)cc2)n1` [Compound 117, 2-[4-(6-{[2-(Acetyl-methyl-amino)-ethyl]-methyl-amino}-pyrazin-2-yloxy)-phenyl]-acetamide]: 0.2 to 1 µM; `CC(=O)N(C)CCCc1cncc(Oc2ccc(-c3ccc(N)cn3)cc2F)n1` [Compound 282, N-(3-{6-[4-(5-Amino-pyridin-2-yl)-2-fluoro-phenoxy]-pyrazin-2-yl}-propyl)-N-methyl-acetamide]: less than 0.2 µM; `CC(=O)N(C)CCN(C)c1cncc(Oc2cnc3[nH]ccc3c2)n1` [Compound 250, N-Methyl-N-(2-{methyl-[6-(1H-pyrrolo[2,3-b]pyridin-5-yloxy)-pyrazin-2-yl]-amino}-ethyl)-acetamide]: 1 to 10 µM. `COc1cc(C(C)=O)ccc1Oc1cncc(N(C)CCN(C)C(C)=O)n1` [Compound 243, N-(2-{[6-(4-Acetyl-2-methoxy-phenoxy)-pyrazin-2-yl]-methyl-amino}-ethyl)-N-methyl-acetamide] had an IC50 of 1 to 10 µM. `CC(=O)N(C)CCN(C)c1cncc(Oc2ccc3c(c2)OCO3)n1` [Compound 91, N-(2-{[6-(Benzo[1,3]dioxol-5-yloxy)-pyrazin-2-yl]-methyl-amino}-ethyl)-N-methyl-acetamide] displayed an IC50 of 0.2 to 1 µM. Compound `CC(=O)N(C)CCN(C)c1cncc(Oc2ccc(C3CCC(C)CO3)cc2)n1` (stereo not shown) [Compound 179, N-Methyl-N-[2-(methyl-{6-[4-(5-methyl-tetrahydro-pyran-2-yl)-phenoxy]-pyrazin-2-yl}-amino)-ethyl]-acetamide] displayed an IC50 of less than 0.2 µM.

`CC(=O)OCc1ccc(Oc2cncc(N(C)CCN(C)C(C)=O)n2)cc1` [Compound 176, Acetic acid 4-(6-{[2-(acetyl-methyl-amino)-ethyl]-methyl-amino}-pyrazin-2-yloxy)-benzyl ester] registered an IC50 of less than 0.2 µM. In the case of `CC(=O)N(C)CCN(C)c1cncc(Oc2ccc3[nH]c(=O)oc3c2)n1` [Compound 154, N-Methyl-N-(2-{methyl-[6-(2-oxo-2,3-dihydro-benzooxazol-6-yloxy)-pyrazin-2-yl]-amino}-ethyl)-acetamide], the IC50 was in the range of 1 to 10 µM. On to `CC(=O)N(C)CCN(C)c1cncc(Oc2ccc3[nH]ccc3c2)n1` [Compound 106, N-(2-{[6-(1H-Indol-5-yloxy)-pyrazin-2-yl]-methyl-amino}-ethyl)-N-methyl-acetamide], for which the IC50 lay in the range of 0.2 to 1 µM. Next, `CC(=O)N(C)CCN(C)c1cncc(Oc2ccc(-c3ccc(N4CCN(C(=O)CCCCCNC(=O)CCCCC5SCC6NC(=O)NC65)CC4)nc3)cc2)n1` (stereo not shown) [Compound 287, 5-(2-Oxo-hexahydro-thieno[3,4-d]imidazol-6-yl)-pentanoic acid [6-(4-{5-[4-(6-{[2-(acetyl-methyl-amino)-ethyl]-methyl-amino}-pyrazin-2-yloxy)-phenyl]-pyridin-2-yl}-piperazin-1-yl)-6-oxo-hexyl]-amide]: less than 0.2 µM; `CC(=O)N(C)CCN(C)c1cncc(Oc2noc3ccccc23)n1` [Compound 224, N-(2-{[6-(Benzo[d]isoxazol-3-yloxy)-pyrazin-2-yl]-methyl-amino}-ethyl)-N-methyl-acetamide]: less than 0.2 µM. Consider `COc1ccc(Oc2cncc(N(C)CCN(C)S(=O)(=O)c3cc(F)ccc3F)n2)cc1` [Compound 61, 2,5-Difluoro-N-(2-{[6-(4-methoxy-phenoxy)-pyrazin-2-yl]-methyl-amino}-ethyl)-N-methyl-benzene-sulfonamide], for which the IC50 was in the range of 1 to 10 µM. In turn, `CC(=O)N(C)CCN(C)c1cncc(Oc2ccc3ccncc3c2)n1` [Compound 112, N-(2-{[6-(Isoquinolin-7-yloxy)-pyrazin-2-yl]-methyl-amino}-ethyl)-N-methyl-acetamide] yielded an IC50 of less than 0.2 µM. `CC(=O)N(C)CCN(C)c1cncc(Oc2ccc(-c3cccnc3N)cc2)n1` [Compound 177, N-[2-({6-[4-(2-Amino-pyridin-3-yl)-phenoxy]-pyrazin-2-yl}-methyl-amino)-ethyl]-N-methyl-acetamide] yielded an IC50 of less than 0.2 µM. On to `CC(=O)N(C)CCN(C)c1cncc(Oc2ccc(-c3ccc(F)cn3)cc2)n1` [Compound 152, N-[2-({6-[4-(5-Fluoro-pyridin-2-yl)-phenoxy]-pyrazin-2-yl}-methyl-amino)-ethyl]-N-methyl-acetamide], for which the IC50 was less than 0.2 µM. The compound `COc1ccc(-c2ccc(Oc3cncc(N(C)CCN(C)C(C)=O)n3)cc2)cn1` [Compound 184, N-[2-({6-[4-(6-Methoxy-pyridin-3-yl)-phenoxy]-pyrazin-2-yl}-methyl-amino)-ethyl]-N-methyl-acetamide] showed a 50% inhibitory concentration (IC50) of less than 0.2 µM. Under `CC(=O)Oc1cnc(-c2ccc(Oc3cncc(N(C)CCN(C)C(C)=O)n3)cc2)nc1` [Compound 155, Acetic acid 2-[4-(6-{[2-(acetyl-methyl-amino)-ethyl]-methyl-amino}-pyrazin-2-yloxy)-phenyl]-pyrimidin-5-yl ester] stands 1 to 10 µM. `COc1ccc(Oc2cncc(N(C)CCNC(=O)OC(C)(C)C)n2)cc1` [Compound 54, (2-{[6-(4-Methoxy-phenoxy)-pyrazin-2-yl]-methyl-amino}-ethyl)-carbamic acid tert-butyl ester] showed an IC50 of 1 to 10 µM. Regarding `CC(=O)N(C)CCCc1cncc(Oc2ccc(-c3ccc(C)cn3)cc2)c1` [Compound 312, N-Methyl-N-(3-{5-[4-(5-methyl-pyridin-2-yl)-phenoxy]-pyridin-3-yl}-propyl)-acetamide], the IC50 was in the range of 1 to 10 µM. Next, `CC(=O)N(C)CCN(C)c1cncc(Oc2ccc(-c3nc4cc(C#N)ccc4[nH]3)cc2)n1` [Compound 124, N-[2-({6-[4-(5-Cyano-1H-benzo-imidazo-2-yl)-phenoxy]-pyrazin-2-yl}-methyl-amino)-ethyl]-N-methyl-acetamide]: 0.2 to 1 µM; `O=C1CCCCN1CCCc1cncc(Oc2ccc(-c3ccc(N4CCOCC4)nc3)cc2)n1` [Compound 25, 1-(3-{6-[4-(6-Morpholin-4-yl-pyridin-3-yl)-phenoxy]-pyrazin-2-yl}-propyl)-piperidin-2-one]: less than 0.2 µM. In the case of `CC(=O)N(C)CCCc1cncc(Oc2ccc(-c3cnc(N)cn3)cc2)n1` [Compound 214, N-(3-{6-[4-(5-Amino-pyrazin-2-yl)-phenoxy]-pyrazin-2-yl}-propyl)-N-methyl-acetamide], the IC50 was 0.2 to 1 µM. On to `Cc1ccc(-c2ccc(Oc3cncc(NCCC(N)=O)n3)cc2)nc1` [Compound 298, 3-{6-[4-(5-Methyl-pyridin-2-yl)-phenoxy]-pyrazin-2-ylamino}-propionamide], for which the IC50 fell in the range of 0.2 to 1 µM.

`CC(=O)N(C)CCN(C)c1cncc(Oc2ccc(-c3ccn(C)n3)c(F)c2F)n1` [Compound 256, N-[2-({6-[2,3-Difluoro-4-(1-methyl-1H-pyrazol-3-yl)-phenoxy]-pyrazin-2-yl}-methyl-amino)-ethyl]-N-methyl-acetamide] returned an IC50 of 0.2 to 1 µM.
